Laboratory results published in ChEMBL document CHEMBL3301451, “MMV Malaria Box gametocyte functional viability assay screening”.

Assays:
Plasmodium falciparum [1] = assay: (§1) MMV: P. falciparum NF54 functionally mature Stage V gametocytes were incubated for 24 hr in the presence of the test compounds. Gamete formation was then triggered by addition of 2uM xantheurenic acid and temperature decrease to ~20C. Male gamete exflagellation was recorded and analysed by automated microscopy after 20 min. All compounds were tested in 4 independent experiments and data presented here is the mean.; type: functional; parameters: concentration or dose not given beside the values
Plasmodium falciparum [2] = assay: as §1, with “Female” for “Male”, “formation” for “exflagellation”, “24 hr later” for “and analysed”, “detection of surface labelling of female gametes with a Cy3-conjugated antibody reactive to Pfs25.” for “after 20 min.”, “mean. IC50s determined for selected compounds.” for “mean.”; type: functional, organism-based; settings: NF54, 24 h
Plasmodium falciparum [3] = assay: as §1, with “mean. IC50s determined for selected compounds.” for “mean.”; type: functional, organism-based
Plasmodium berghei [4] = assay: (§2) MMV: P. berghei-infected blood was withdrawn from mice by cardiac pucture before being immediately added to ookinete culture medium containing test compounds. 26 hr later, GFP-positive ookinetes were identified and counted by automated microscopy. All compounds were tested in 4 independent experiments and data presented here is the mean. IC50s determined for selected compounds.; type: functional, organism-based
Plasmodium falciparum [5] = assay: as §1, with “Female” for “Male”, “formation” for “exflagellation”, “24 hr later” for “and analysed”, “detection of surface labelling of female gametes with a Cy3-conjugated antibody reactive to Pfs25.” for “after 20 min.”; type: functional; parameters: concentration or dose not given beside the values; settings: NF54, 24 h
Plasmodium berghei [6] = assay: as §2, with “mean.” for “mean. IC50s determined for selected compounds.”; type: functional; parameters: concentration or dose not given beside the values

| SMILES | inhibition (Plasmodium falciparum [1]) | IC50 (Plasmodium falciparum [2]) | IC50 (Plasmodium falciparum [3]) | IC50 (Plasmodium berghei [4]) | inhibition (Plasmodium falciparum [5]) | inhibition (Plasmodium berghei [6]) |
| --- | --- | --- | --- | --- | --- | --- |
| CN(C)CCCNc1c2ccccc2nc2ccccc12 | 97.5% | 1070 nM | 130 nM | 292 nM | 24.6% | 96.2% |
| COc1ccc(-c2cc3c(nn2)-c2ccccc2C3=O)cc1 | 71.3% | > 50000 nM | 3710 nM | 5760 nM | -5.89% | 2.461% |
| COc1ccc(C2c3ccc4ccccc4c3Oc3ncn(CCCN(C)C)c(=N)c32)cc1 (stereo unspecified) | 83.6% | 473 nM | 183 nM | 3490 nM | 27.3% | -7.365% |
| COc1ccc2c(c1)C1(Nc3ccccc3-c3nc4ccccc4n31)C(=O)N2 (stereo unspecified) | 48.2% | 6450 nM | 2900 nM | – | 24% | 54.64% |
| Cc1cc(C)cc(Nc2cc(C)nc3nc(C(F)(F)F)nn23)c1 | 13.1% | – | – | – | -17.3% | -26.51% |
| O=C(NCC(c1ccsc1)N1CCCCCC1)c1ccc(C(F)(F)F)cc1 (stereo unspecified) | -14.6% | – | – | – | -37.4% | -31.95% |
| COc1ccc(-c2cc3c(SCC(=O)Nc4cc(C(F)(F)F)ccc4Cl)nccn3n2)cc1 | 23.5% | – | – | – | -16.8% | -25.97% |
| CCOC(=O)c1cnc2ccc(CC)cc2c1O | 65.8% | > 50000 nM | 570 nM | 287 nM | 9.93% | 97.88% |
| CCN(CC)CCNc1ccnc2cc(Cl)ccc12 | -16.3% | – | – | – | -29.9% | -23.67% |
| OC1=C2C(=Nc3ccccc3SC2c2ccccc2)c2ccccc21 (stereo unspecified) | 58.8% | > 50000 nM | 3240 nM | 12800 nM | -16.4% | 97.46% |
| CCc1c(C)c(=N)c2ccccc2n1C.I | -21.8% | – | – | – | -14.1% | -36.84% |
| COc1cccc(NC(=O)[C@H](C(C)C)n2c(=O)[nH]c3ccccc3c2=O)c1 | 70.9% | 384 nM | 241 nM | 464 nM | 36.6% | 58.53% |
| CCOC(=O)c1cn(CC)c2cc(N(C)CCc3ccc(OC)c(OC)c3)c(F)cc2c1=O | 71.2% | > 50000 nM | 45 nM | – | -15% | 20.52% |
| CC(C)(C)c1ccc(O)c(CNC2CCCCC2)c1 | -29.4% | – | – | – | 3.67% | -33.89% |
| COc1ccc(C2=C(c3ccc(OC)cc3)C3(c4ccccc4)C(=O)C2(c2ccccc2)C2C(=O)N(c4ccc(C)cc4)C(=O)C23)cc1 (stereo unspecified) | -9% | – | – | – | 7.88% | -21.97% |
| CCOC(=O)c1c(NC(=O)c2ccccc2)sc2c(O)c(CN(CC)CC)ccc12 | 51% | – | – | – | -19.6% | -23.17% |
| CCOC(=O)C1=C(c2ccccc2)N=c2sc(=Cc3cc(C)n(-c4ccc(F)cc4)c3C)c(=O)n2C1c1cccc(OC)c1OC (stereo unspecified) | 17.4% | – | – | – | -0.952% | -41.23% |
| CCC1(C)CC(CCNCc2ccccc2O)(c2ccc(C)cc2)CCO1 (stereo unspecified) | -6.89% | – | – | – | 7.59% | -38.74% |
| CCCN(CCC)CC(O)COc1ccccc1C(=O)Nc1ccccc1 (stereo unspecified) | 0.885% | – | – | – | -10.5% | -27.28% |
| Fc1ccc2[nH]c3c(NCCCN4CCOCC4)ncnc3c2c1 | 14.8% | – | – | – | -13.7% | -27.65% |
| CC(=O)c1sc(NC(=O)Nc2ccc(C)cc2C)nc1C | -39.7% | – | – | – | -20.1% | -22.74% |
| COc1ccc(C=C2SC(=N)N(c3ccccc3OC)C2=O)cc1 | 77.3% | > 50000 nM | 481 nM | 96.2 nM | -7.34% | 72.74% |
| Oc1ccc2ccccc2c1CNc1nc2ccccc2[nH]1 | 31.6% | – | – | – | -19.1% | -28.7% |
| CCOC(=O)c1c(C)n(-c2ccc(Cl)cc2)c2ccc(OC(=O)C=Cc3ccccc3)cc12 | 18.8% | – | – | – | -9.97% | -22.23% |

| SMILES | inhibition (Plasmodium falciparum [1]) | IC50 (Plasmodium falciparum [2]) | IC50 (Plasmodium falciparum [3]) | IC50 (Plasmodium berghei [4]) | inhibition (Plasmodium falciparum [5]) | inhibition (Plasmodium berghei [6]) |
| --- | --- | --- | --- | --- | --- | --- |
| O=C(Nc1ccc(-c2nc3ccccc3[nH]2)cc1)c1ccc(Cl)c(Cl)c1 | 4.23% | – | – | – | -34.9% | -25.94% |
| C=CC12CCN(CC1)C(C(O)c1ccnc3ccc(OC)cc13)C2.Cl (stereo unspecified) | -29.1% | – | – | – | -31.3% | -25.15% |
| Cc1cccc(Nc2nc(N)c3ccccc3n2)c1.Cl | -38.3% | – | – | – | -22.2% | -25.03% |
| CCn1c(CN2CCN(Cc3ccccc3)CC2)nc2cc(NC(=O)c3cccs3)ccc21 | 67.4% | > 50000 nM | 288 nM | 487 nM | -15.4% | 78.13% |
| Cl.Clc1cc(Br)ccc1-c1ccc(CNCC2CCNCC2)o1 | 74.1% | 159 nM | 25.5 nM | 7820 nM | 38.1% | -9.542% |
| COc1ccccc1C(=O)ON=C(N)Cc1cccc2ccccc12 | 30.9% | – | – | – | 14.9% | -22.37% |
| O=C1c2ccccc2C2=Nc3ccccc3SC(c3cccc(F)c3)C12 (stereo unspecified) | 70.7% | > 50000 nM | 2140 nM | 1060 nM | 11% | 71.31% |
| COc1ccccc1NC1=C(N2CCCCC2)C(=O)c2ccccc2C1=O | 96.8% | > 50000 nM | 96 nM | 4250 nM | -15.9% | -14.08% |
| CCOC(=O)c1cn(CC)c2cc(N3CCCCC3)c(F)cc2c1=O | 92.4% | > 50000 nM | 365 nM | 2190 nM | -15.2% | 41.89% |
| CCCc1cc(O)c2c3c(c(=O)oc2c1)CN(C)CC3 | 2.76% | – | – | – | -29.9% | -29.34% |
| Cl.Oc1ccccc1CNCC12CC3CC(CC(C3)C1)C2 | -27.5% | – | – | – | -6.61% | -22.21% |
| O=C(Nc1ccc(-c2nc3cc4ccccc4cc3[nH]2)cc1)c1cccc(Br)c1 | 30.7% | – | – | – | -0.0992% | -21.87% |
| Cc1cc(C=C2SC(=Nc3ccccc3)N(C3CCCC3)C2=O)c(C)n1-c1ccc(Cl)cc1 | 31.4% | – | – | – | -30.5% | -28.39% |
| COc1ccc2c(=O)cc(C(Cl)(Cl)Cl)oc2c1 | 31.7% | – | – | – | -23.2% | -22.17% |
| CCOC(=O)c1ccc2nc(-c3ccccc3)cc(O)c2c1 | 63.6% | > 50000 nM | 237 nM | 208 nM | 2.21% | 27.95% |
| Oc1ccc(Br)cc1CN1CCN(Cc2ccc(Cl)cc2)CC1 | -54.3% | – | – | – | -35.8% | -27.93% |
| OC1CCCCC1C1(NC(=S)Nc2ccccc2)CCCCC1 (stereo unspecified) | 80.7% | 614 nM | 384 nM | 16400 nM | 73.8% | 14.01% |
| OC1=C2C(=Nc3ccccc3SC2c2ccc(Br)cc2)c2ccccc21 (stereo unspecified) | 62.9% | > 50000 nM | 3410 nM | 2270 nM | 8.27% | 56.77% |
| CCCc1c(CC)c(=N)c2ccccc2n1C | -39.2% | – | – | – | -32.4% | -31.4% |
| CC1CC2=C(CC1CNCCCN(C)C)C(C)(C)CCC2 (stereo unspecified) | 62.3% | 189 nM | 139 nM | 6500 nM | 56.1% | -10.78% |
| Nc1ccn([C@@H]2O[C@H](CO)[C@@H](O)[C@H]2O)c(=O)n1 [CYTIDINE] | -18.8% | – | – | – | -25.7% | -17.3% |
| O=C(Nc1cccc(C2=NCCN2)c1)Nc1cccc(C2=NCCN2)c1 [IMIDOCARB] | -36.7% | – | – | – | -30.2% | -13.35% |
| CN(C)c1ccc(C(O)(c2ccc(N(C)C)cc2)c2ccc(N(C)C)cc2)cc1 [METHYLROSANILINE] | 19.7% | 446 nM | 977 nM | 991 nM | 44.6% | 62.53% |
